In patent publication US20070191485A1, “Active oxygen scavenging composition including citrulline” (Nara Institute of Science and Technology, priority 2001, published 2007):
Read-outs that look alike come from different tables or passages of the source.

Assays:
pyruvate kinase (PK) = experiment: Protection of pyruvate kinase (PK) activity from injury by hydroxyl radical; format: biochemical, porcine; settings: after 120 minutes (about 36% without citrulline)
Experimental: The ability of citrulline to protect bio-molecules, such as enzymes or nucleic acids, from hydroxyl radical was investigated. That is, investigation on the effect of hydroxyl radical exerted to enzymatic activity of pyruvate kinase (PK) was performed. Here, hydroxyl radical was generated by a system using ascorbic acid and hydrogen peroxide. The inactivation mixture contained 100 mM of Tris-HCl buffer (pH 7.4), 2.5 U of porcine PK (available from Oriental CO.), 0.2 mM of ascorbate, 0.15 mM of FeEDTA, 0.6 mM of H2O2 and citrulline at various concentrations. Then the total volume was adjusted to 250 μL. The inactivation reaction started by adding H2O2 at 25° C. and 10 μL of aliquot was sampled at constant intervals. Then residual activity of the enzyme was determined. The reaction mixture for measurement of enzymatic activity contained 80 mM of Tris-HCl buffer (pH 7.4), 7.5 mM of MgCl2, 75 mM of KCl, 3.75 mM of ADP, 0.15 mM of NADH, 10 U of porcine LDH, 0.8 mM of PEP and 10 μL of inactivated PK enzyme. The reaction started by addition of substrate at 25° C., and initial rate was measured by alteration of absorbance at 340 nm, accompanied by increase or decrease of NADH. In FIG. 5, ∘ indicates absence of citrulline, ● indicates presence of 200 mM citrulline, ▴ indicates presence of 400 mM citrulline, and ▪ indicates without generation of active oxygen, respectively.

[1] = system: lactate dehydrogenase (LDH); experiment: Effect of solutes on enzymatic activity of lactate dehydrogenase (LDH); format: biochemical, Pig
Experimental: (§1) Safety of citrulline was compared with that of arginine, by investigation of inhibition on enzymatic activities of malate dehydrogenase (MDH) and lactate dehydrogenase (LDH), caused by high concentration citrulline and arginine. Chloride ion was used as ion pair for arginine, and assay on potassium chloride was performed to evaluate effect of the chloride ion as well.
(§2) Leaf tissue derived from wild water-melon (Citrullus lanatus sp. No. 101117-1) was fractured under cooling with liquid nitrogen. Then after extraction with extraction buffer (50 mM Tris-HCl, pH=7.5, 5 mM DTT, 5 μg/ml BSA, 15% glycerol), supernatant obtained by centrifugation at 10,000 g for 5 minutes was used as crude extraction fraction of malate dehydrogenase (MDH). Pig purified authentic enzyme available from Oriental Co., was used as lactate dehydrogenase (LDH). MDH reaction solution contained 100 mM Tris-HCl pH 7.5, 150 μM NADH, 250 μM oxaloacetic acid and 10 μL of enzyme solution, and the total volume of the solution was adjusted to 1 mL. As LDH reaction solution, a mixture containing 10 mM Tris-HCl pH 7.5, 150 μM NADH, 250 μM lithium pyruvate and 10 μL of enzyme solution was used. When effect of various kinds of solutes, e.g. citrulline, on enzymatic activity is to be investigated, pH of the solution was re-adjusted to 7.5 by using KOH after addition of the solute at various concentration. The reaction started at 25° C. by addition of substrate, then initial rate was determined by alteration of absorbance at 340 nm, accompanied by decrease of NADH. Incidentally, in FIG. 2 and FIG. 3, white columns indicate the results of citrulline, black columns indicate those of arginine chloride, and hatched columns indicate those of potassium chloride, respectively.

circular plasmid DNA = experiment: Protection of circular plasmid DNA from injury by hydroxyl radical (agarose gel electrophoresis); settings: after 2 hours
Experimental: Moreover, the effect of citrulline to prevent DNA from active oxygen injury was investigated. A solution containing 200 ng of circular plasmid DNA and various concentrations of citrulline was prepared and hydroxyl radical was generated by addition of 3 mM of H2O2 and 0.01 mM of FeEDTA. Then injury exerted on DNA was evaluated by agarose gel electrophoresis after 2 hours. The results were shown in FIG. 6 and lanes 1 to 7 indicated following experimental systems, respectively. In FIG. 6, lane 1 indicates molecular marker for electrophoresis. Lane 2 indicates a result untreated plasmid DNA. Lane 3 indicates a result from an experimental system wherein trivalent iron is added solely. Lane 4 indicates a result from an experimental system wherein hydroxyl radical was generated by addition of trivalent iron and hydrogen peroxide. Lane 5 indicates a result from an experimental system wherein 50 mM of citrulline was added to the system of lane 4 (the system with generation of active oxygen) to eliminate the generated active oxygen. Lane 6 indicates a result from an experimental system wherein 100 mM of citrulline was added to the system of lane 4 (the system with generation of active oxygen) to eliminate the generated active oxygen. Lane 7 indicates a result from an experimental system wherein 200 mM of citrulline was added to the system of lane 4 (the system with generation of active oxygen) to eliminate the generated active oxygen.

[2] = system: malate dehydrogenase (MDH); experiment: Effect of solutes on enzymatic activity of malate dehydrogenase (MDH); format: biochemical, wild water-melon (Citrullus lanatus sp. No. 101117-1)
Experimental: as §1, §2

[3] = Kinetic analysis of reaction with hydroxyl radical (competition with hydroxylation of salicylic acid); settings: for Reaction rate constant (with hydroxyl radical): calculated from competitive reaction theory, mannitol as standard
Experimental: To evaluate ability of citrulline as an active oxygen scavenger, reaction rate between citrulline and hydroxyl radical was determined. Generation of hydroxyl radical was performed by a system using ascorbic acid and hydrogen peroxide. Here hydroxylation of salicylic acid was used as an index for radical generation. The reaction mixture contained 40 mM of K-Pi buffer, pH 7.4, 0.26 mM of ascorbate, 0.15 mM of FeEDTA, 0.6 mM of H2O2, 2 mM of salicylate and various compatible solutes, then the total volume was adjusted to 400 μL. After reaction at 25° C. for 90 minutes, reaction product of salicylic acid and a hydroxyl radical (namely, 2,3-dihydroxybenzoic acid) was altered to its chromogenic derivative. Then it was determined by absorbance at 510 nm. As the result, the secondary reaction rate constant on reaction of citrulline and hydroxyl radical was calculated from competitive reaction theory. As the standard reaction rate constant, a reported value of mannitol (1.7×10^9 M^−1 s^−1) was used.
The secondary reaction rate constants between the solutes and hydroxyl radical were roughly calculated.

[4] = reported value used as the standard for calculation, cited from earlier work

NC(=O)NCCC[C@H](N)C(=O)O [Citrulline, citrulline]
residual activity of PK, % of the initial activity (pyruvate kinase (PK); 200 mM citrulline): 61% | residual activity of PK, % of the initial activity (pyruvate kinase (PK); 400 mM citrulline): 74% | inhibitory effect on lactate dehydrogenase (LDH) activity ([1]; high concentration of solute): not significant | decrease of LDH enzymatic activity ([1]; in the presence of 600 mM): about 10% | abscission of DNA (circular plasmid DNA; 50 mM citrulline (Lane 5)): markedly reduced | abscission of DNA (circular plasmid DNA; 100 mM citrulline (Lane 6)): markedly reduced | abscission of DNA (circular plasmid DNA; 200 mM citrulline (Lane 7)): markedly reduced | inhibitory effect on malate dehydrogenase (MDH) ([2]; high concentration of solute): did not cause any inhibitory effect | MDH activity, % of control ([2]; in the presence of 200 mM): about 109% | Reaction rate constant (with hydroxyl radical) [3]: 2.9e+09 M⁻¹ s⁻¹ | potency as a scavenger of hydroxyl radical (FIG. 4) ([3]; compared with glycinebetaine, proline, mannitol): most significant among the four compatible solutes | calculated ID50 value (secondary reaction rate constant with hydroxyl radical) ([3]; roughly calculated): about 3×10^9 M^−1 s^−1

C[N+](C)(C)CC(=O)O [Glycinebetain, glycinebetaine, reference compound]
Reaction rate constant (with hydroxyl radical) [3]: 2.1e+07 M⁻¹ s⁻¹

OC[C@@H](O)[C@@H](O)[C@H](O)[C@H](O)CO [Mannitol, mannitol]
Reaction rate constant (with hydroxyl radical), reported standard value [4]: 1.7e+09 M⁻¹ s⁻¹ | Reaction rate constant (with hydroxyl radical), reported standard value ([4]; listed as mannitol): 1.7e+09 M⁻¹ s⁻¹

O=C(O)[C@@H]1CCCN1 [Proline, proline, reference compound]
Reaction rate constant (with hydroxyl radical) [3]: 3e+08 M⁻¹ s⁻¹

O=C(O)c1ccccc1O [Salicylic acid, salicylic acid, reference compound]
Reaction rate constant (with hydroxyl radical) [3]: 6.3e+09 M⁻¹ s⁻¹

[Cl-].[K+] [potassium chloride, reference compound]
LDH enzymatic activity, % of the control activity ([1]; in the presence of 600 mM): 64% | MDH enzymatic activity, % of the control activity ([2]; in the presence of 600 mM): 21%
